Measurements taken from patent publication US20190299005A1, “VAGUS NERVE STIMULATION AND MONITORING” (priority 2018, published 2019).
Entries after “also recorded” stand apart in the source; their conditions may differ. Where a name gives a salt, the structure may show the parent alone.

Legend:
[1] = tested on: individual single vagal fibers (mesenteric nerve bundle of jejunal segment); experiment: Ex vivo vagal nerve fiber recording, test substance in lumen of jejunal segment, post hoc single unit burst analysis; parameters: species or system BALB/c mice; settings: for Average inter-pulse duration, lower 95% CI / Average inter-pulse duration, upper 95% CI / Burst duration, lower 95% CI / Burst duration, upper 95% CI / Inter-burst duration, lower 95% CI / Inter-burst duration, upper 95% CI / Inter-pulse duration within bursts, lower 95% CI / Inter-pulse duration within bursts, upper 95% CI: drug in lumen; for Fraction average inter-pulse duration / Fraction burst duration / Fraction inter-burst duration / Fraction inter-pulse duration within bursts: fractional change (treatment−control)/control; for Fraction average inter-pulse duration: luminal fluoxetine 30 μM, sertraline 10 μM, bupropion 10 μM, JB-1 10^9 cfu/mL, squalamine 10 μM; for Fraction burst duration / Fraction inter-burst duration / Fraction inter-pulse duration within bursts: same luminal concentrations
Protocol: Adult BALB/c mice were killed by cervical dislocation. Then a 2-3 cm long jejunal segment with attached mesenteric tissue was removed and the oral and anal ends of the jejunal segment were cannulated with plastic tubing, gently emptied of contents by perfusing the lumen with Krebs buffer using a 3 mL plastic syringe whose tip was inserted into the oral opening. The cleaned jejunal segment was placed into a polystyrene petri dish (Falcon 351006, 50 mm×9 mm, Corning, N.Y., USA) filled with Krebs buffer of the following composition (in mM): 118 NaCl, 4.8 KCl, 25 NaHCO3, 1.0 NaH2PO4, 1.2 MgSO4, 11.1 glucose, and 2.5 CaCl2) bubbled with carbogen (95% 02 and 5% 002). The bottom of the dish was previously lined 1-2 mm deep with cured silicone elastomer SYLGARD®, Dow Corning, MI, USA.
Next the mesenteric nerve bundle was isolated by careful dissection under a stereomicroscope (Leika) using pointed number 5 forceps (Fine Science Tools), and the dish and contents were transferred to an inverted microscope (Nikon).
The gut segment and attached mesenteric tissue was then pinned linearly, without stretching, from oral to anal in the dish by pushing fine insect pins through the adherent mesentery into the silicone elastomer SYLGARD®. The lumen was gravity perfused (1 ml/min) at room temperature (20-25° C.), with oxygenated Krebs buffer and using several Mariotti bottles (McCarthy, Science 80: 100, 1934) attached to a plastic manifold (World Precision Instruments, Sarasota, Fla., USA). The serosal compartment was separately perfused with pre-warmed (35° C.) Krebs buffer at 4 ml/min. 3 μM nicardipine hydrochloride was added to the latter Krebs buffer to paralyze the smooth muscle to isolate chemosensory afferent signals from motility-related vagal responses (Perez-Burgos et al., Am J Physiol Gastrointest Liver Physiol 304: G211-220, 2013).
The nerve bundle was gently sucked onto a glass pipette attached to a patch-clamp electrode holder (CV-7B; Molecular Devices, Sunnyvale, Calif.), and extracellular nerve recordings were performed using a Multi-Clamp 700B amplifier and Digidata 1440A signal converter (Molecular Devices). Electrical signals were bandpass-filtered at 0.1-2 kHz, sampled at 20 kHz, and stored on a personal computer running pClamp 10 software (Molecular Devices) for post hoc analysis. Constitutive multiunit electrical activity was always recorded from the mesenteric nerve bundle even when the lumen was perfused with only Krebs buffer. Baseline recordings with Krebs buffer in the lumen were performed for 15 min, after which the luminal perfusate was switched to one containing Krebs buffer with substances to be tested (fluoxetine 30 μM, sertraline 10 μM, bupropion (WELLBUTRIN®) 10 μM, Lactobacillus rhamnosus JB-1 10^9 cfu/mL, or squalamine 10 μM). Recording in the presence of test substances was performed for up to 40 min after which the luminal perfusate was again switched to Krebs buffer and recording continued for up to 30 min.
Single units representing discharge from individual single vagal fibers were discriminated and identified by their unique spike waveform shape and amplitude (Rong et al., J Physiol 560: 867-881, 2004) using Dataview computer software (Heitler, Journal of Undergraduate Neuroscience Education 6: A1-A7, 2007). Dataview uses principal component analysis to sort the recorded multiunit spikes into individual single unit categories according to shape and amplitude (Heitler, Journal of Neuroscience Methods 185: 151-164, 2009).
Control and treatment periods were identified from event markers inserted at the time of recording. Then, for each channel (color-coded unit), spike bursts were detected using the “Poisson surprise” method devised by Legéndy & Salcman (Legendy & Salcman, J Neurophysiol 53: 926-939, 1985). A surprise was defined as −log 10(p), where p is the probability of a set of events occurring this close together by chance. […]

[2] = tested on: individual single vagal fibers (mesenteric nerve bundle of jejunal segment); experiment: Ex vivo vagal nerve fiber recording from mice orally fed antidepressants, lumen perfused with buffer only; parameters: species or system BALB/c mice; settings: fed in the drinking water for 14 days; fluoxetine 18, sertraline 6, bupropion 6 mg/kg per day
Protocol: The procedure described above in connection with Example 1 and 2 was repeated for the BALB/c mice orally fed with antidepressants fluoxetine (18 mg/kg per day), sertraline (6 mg/kg per day) and bupropion (WELLBUTRIN®) (6 mg/kg per day) in the drinking water for 14 days. Following the oral treatment, the mice were sacrificed and a jejunal segment with mesenteric tissue was recovered as described in Example 1. In this example, the lumens of the jejunal segments were, however, perfused only with KREPS buffer.
FIG. 16 illustrates the mean interval between spike firing, i.e., average inter-pulse durations, for luminal Krebs control, i.e., from control mice that have not been treated with any antidepressants, and for mice fed with fluoxetine, sertraline or bupropion (WELLBUTRIN®).

[3] = tested on: BALB/c mice (depressive-like behavior); experiment: Tail Suspension Test (TST) after oral treatment, intact and vagotomized mice; type: in vivo; settings: for effect on depressive and anxiety behavior in vagotomized mice: sub-diaphragmatic vagotomy prior to oral administration; for dependency of the effect on the vagus nerve: vagotomized mice compared to mice with an intact vagus nerve; for depressive and anxiety behavior in mice: oral administration, intact vagus nerve
Protocol: BALB/c mice were orally fed antidepressants fluoxetine (18 mg/kg per day), sertraline (6 mg/kg per day) and bupropion (WELLBUTRIN®) (6 mg/kg per day) in the drinking water for 14 days, or JB-1 (2.5-4×10^9 bacteria/day) in the drinking water for 28 days.
1 day following oral treatments with the antidepressants, the BALB/c mice were tested for depressive-like behavior with the tail suspension test. Mice were removed from the colony room and moved to a behavioral testing room where they were allowed to habituate for 30 min. Following this period, mice were suspended by the tail using laboratory tape measured to 17 cm (Can et al., Journal of Visualized Experiments 59: e3769, 2012) from a suspension bar in a position whereby they could not escape or hold on to any surfaces. 2 cm of tape was affixed to the mouse tail with the remaining 15 cm used for suspension of the mouse. Animals were left suspended for a period of 6 mins. Animal behavior was video recorded and scored by a blinded observer for freezing behavior. Freezing was calculated as a percentage of total time. Following behavioral testing mice were returned to the housing room and resumed oral treatments for the duration of the study.
The Tail Suspension Test is a simple screening test for the behavioral effects of antianxiety agents and antidepressants in rodents. This test assesses the inter-individual differences in responses to stressful situations measured by duration of immobility.

[4] = tested on: vagal afferent; settings: aged mice with reduced firing frequency; cited from earlier work
[5] = tested on: colonic motility; settings: applied intraluminally in mice; cited from earlier work
[6] = tested on: patients with Parkinson's disease (PD) and severe constipation; settings: cited from earlier work

Compound	Average inter-pulse duration, lower 95% CI [1] [ms]	Average inter-pulse duration, upper 95% CI [1] [ms]	Burst duration, lower 95% CI [1] [ms]	Burst duration, upper 95% CI [1] [ms]	Inter-burst duration, lower 95% CI [1] [ms]	Inter-burst duration, upper 95% CI [1] [ms]	Inter-pulse duration within bursts, lower 95% CI [1] [ms]	Inter-pulse duration within bursts, upper 95% CI [1] [ms]	Fraction average inter-pulse duration [1]	Fraction burst duration [1]	Fraction inter-burst duration [1]	Fraction inter-pulse duration within bursts [1]	effect on depressive and anxiety behavior in vagotomized mice [3]	dependency of the effect on the vagus nerve [3]	depressive and anxiety behavior in mice [3]	other results
CC(NC(C)(C)C)C(=O)c1cccc(Cl)c1 (stereo not drawn) [Bupropion, bupropion]	896	1081	412	543	49779	66105	105	124	0.2919	0.1778	1.152	0.01576	present	not to be dependent on the vagus nerve		average inter-pulse durations as compared to control mice [2]: no difference
CNCCC(Oc1ccc(C(F)(F)F)cc1)c1ccccc1 (stereo not drawn) [Fluoxetine, fluoxetine]	612	983	510	771	11524	44175	101	138	−0.3964	0.6424	−0.1795	0.2705	disappeared; also recorded: no effect	dependent on the vagus nerve	decreased	Inter-burst duration, lower 95% CI ([1]; listed as fluoxetine): 11 524 ms; Inter-burst duration, upper 95% CI ([1]; listed as fluoxetine): 44 175 ms
CN[C@H]1CC[C@@H](c2ccc(Cl)c(Cl)c2)c2ccccc21 [Sertraline, sertraline]	386	614	516	676	16160	36270	87	110	−0.1627	0.6184	−0.1554	0.1936	disappeared	dependent on the vagus nerve; also recorded: same dependency of action	decreased	Inter-burst duration, lower 95% CI ([1]; listed as sertraline): 16 160 ms; Inter-burst duration, upper 95% CI ([1]; listed as sertraline): 36 270 ms
CC(C)[C@@H](CC[C@@H](C)[C@H]1CC[C@H]2[C@@H]3[C@H](O)C[C@H]4C[C@@H](NCCCNCCCCN)CC[C@]4(C)[C@H]3CC[C@]12C)OS(=O)(=O)O [Squalamine, 3(3β,5α,7α,24R)-3-({3-[(4-aminobutyl)amino]propyl}amino)-7-hydroxycholestan-24-yl hydrogen sulfate]	334	675	111	1954	11233	34229	98	136	−0.183	0.6752	−0.2957	0.1394				Burst duration, lower 95% CI ([1]; listed as squalamine): 110 ms; Burst duration, upper 95% CI ([1]; listed as squalamine): 1 954 ms; Inter-burst duration, lower 95% CI ([1]; listed as squalamine): 11 233 ms; Inter-burst duration, upper 95% CI ([1]; listed as squalamine): 34 229 ms; Inter-pulse duration within bursts, upper 95% CI ([1]; listed as squalamine): 136 ms; vagus code compared with other antidepressants ([1]; squalamine 10 μM in lumen): almost identical vagus code as sertraline; vagal afferent firing frequency [4]: increases; age and loperamide-related dysmotility [5]: reversed; effects on colonic motility [5]: prokinetic effects; relief of constipation ([6]; increasing dosage schedule, 50 patients): positive beneficial effects; neurological symptoms in PD patients like hallucinations, sleep and circadian rhythm disturbances ([6]; while patients were taking the drug): attenuated or prevented
